Data as given in patent US6511995B1, “Pyridine derivative and pharmaceutical containing the same” (Otsuka Pharmaceutical Co., Ltd., priority 1998, dated 2003).

System: Human Ito cells (LI90)
Test: Test for inhibition of collagen synthesis (3H proline labeling, hTGF β-1 treated cells)
Assay type: cell-based
Conditions: cultured with test compound in MEM containing 10 PM hTGF β-1 and 2% PDS for 16 hours, 3H proline labeling 24 hours, read-out: IC50 (μM), concentration at which the collagen synthesis is inhibited by 50% (T/C = 0.5)
Protocol: The pyridine derivatives (test compounds) obtained in Examples 1-2, 9-10, 21, 25, 29, 33-37, 39, 42, 44 and 46 were subjected to the following collagen synthesis test.
Test for Inhibition of Collagen Synthesis
Plasma obtained by centrifugation of rabbit blood was centrifuged again to remove platelets, and dialysis of the resulting supernatant was carried out against a Phosphate Buffered Saline (PBS) containing 0.01% (w/v) calcium chloride and 0.01% (w/v) magnesium chloride. Then, centrifugation was carried out to remove the residue and the resulting supernatant was immobilized at 56° C. for 30 minutes. The immobilized supernatant was sterilized by using a filter (0.22 μm) to prepare Plasma Derived Serum (PDS).
Human Ito cells (LI90) were plated in DULBECCO's modified eagle medium (DMEM) containing 10% fetal bovine serum and cultured in an incubator in the presence of 5% carbon dioxide (CO2) for 24 hours at 37° C., and then washed with PBS and cultured in Eagle's minimum essential medium (MEM) containing 2% PDS for additional 3 days. The cultured cells were washed with PBS and cultured together with the test compounds in MEM containing 10 PM hTGF (transforming growth factor) β-1 (containing 2% PDS based on the total amount of MEM) for 16 hours. Then, the cultured L190 was washed with PBS and RI (radioisotope) labeling was carried out in MEM containing ^3H proline as a radioactive labeled compound and 0.25 mM ascorbic acid for 24 hours. This cultured supernatant was precipitated by using trichloroacetic acid (TCA), and then the radioactivity in an […] fraction was measured and the resulting measured value was taken as collagen synthesis activity.
By comparing the radioactivity in the cultured supernatant containing the test compound with the radioactivity in the cultured supernatant containing no test compound (control), the collagen synthesis inhibition activity (T/C) was calculated by the following equation:
T/C=(radioactivity in cultured supernatant containing test compound)/(radioactivity in cultured supernatant of control).
IC50 was determined as the concentration (μM) at which the collagen systhesis can be inhibited by 50% (concentration of the test compound wherein C50=T/C corresponds to 0.5).

Row | Compound | IC50
1 | O=C(Nc1ccc(Oc2ccc3c(c2)C(=O)CCCC3)nc1)c1ccc(Cl)c(Cl)c1 [Example 10] | 2.6 µM
2 | CC(=O)OC1=CCc2c(Oc3ccc(NC(=O)c4ccc(Cl)c(Cl)c4)cn3)cccc21 [Example 46, N1-{6-[(3-acetoxy-1H-inden-7-yl)oxy]-3-pyridinyl}-3,4-dichlorobenzamide] | 1.12 µM
3 | O=C(Nc1ccc(Oc2cccc3c2CCC3=O)nc1)c1ccc(Cl)c(Cl)c1 [Example 1, 3,4-dichloro-N1-{6-[(1-oxo-2,3-dihydro-1H-inden-4-yl)oxy]-3-pyridinyl}benzamide] | 2.14 µM
4 | O=C(Nc1ccc(Cl)c(Cl)c1)c1ccc(Oc2cccc3c2CCCC3=O)nc1 [Example 42, N3-(3,4-dichlorophenyl)-6-[(5-oxo-5,6,7,8-tetrahydro-1-naphthalenyl)oxy]nicotinamide] | 2.29 µM
5 | Cc1cccc(Oc2ccc(NC(=O)c3ccc(Cl)c(Cl)c3)cn2)c1C [Example 29, 3,4-dichloro-N1-[6-(2,3-dimethylphenoxy)-3-pyridinyl]benzamide] | 1.58 µM
6 | O=C(Nc1ccc(Oc2cccc3c2CCC3=O)nc1)c1ccc(C(F)(F)F)cc1 [Example 2, N1-{6-[(1-oxo-2,3-dihydro-1H-inden-4-yl)oxy]-3-pyridinyl}-4-(trifluoromethyl)benzamide] | 2.9 µM
7 | O=C(Nc1ccc(Oc2cccc3c2CCC3O)nc1)c1ccc(Cl)c(Cl)c1 (stereo not shown) [Example 34, 3,4-dichloro-N1-{6-[(1-hydroxy-2,3-dihydro-1H-inden-4-yl)oxy]-3-pyridinyl}benzamide] | 2.15 µM
8 | CC(O)c1ccc(Oc2ccc(NC(=O)c3ccc(Cl)c(Cl)c3)cn2)cc1 (stereo not shown) [Example 36, 3,4-dichloro-N1-{6-[4-(1-hydroxyethyl)phenoxy]-3-pyridinyl}benzamide] | 3.72 µM
9 | CC(=O)c1ccc(Oc2ccc(C(=O)Nc3ccc(C(F)(F)F)cc3)cn2)cc1 [Example 44, 6-(4-acetylphenoxy)-N3-[4-(trifluoromethyl)phenyl]nicotinamide] | 0.92 µM
10 | O=C(Nc1ccc(Oc2cccc3c2CCCC3=O)nc1)c1ccc(Cl)c(Cl)c1 [Example 9, 3,4-dichloro-N1-{6-[(5-oxo-5,6,7,8-tetrahydro-1-naphthalenyl)oxy]-3-pyridinyl}benzamide] | 2.34 µM
11 | O=C(Nc1ccc(Cl)c(Cl)c1)c1ccc(Oc2cccc3c2CCC3=O)nc1 [Example 37, N3-(3,4-dichlorophenyl)-6-[(1-oxo-2,3-dihydro-1H-inden-4-yl)oxy]nicotinamide] | 2.52 µM
12 | O=C(Nc1ccc(Oc2cccc3c2CCC3)nc1)c1ccc(Cl)c(Cl)c1 [Example 25, 3,4-dichloro-N1-(6-[(2,3-dihydro-1H-inden-4-yl)oxy]-3-pyridinyl}benzamide] | 2.7 µM
13 | O=C(Nc1ccc(Oc2cccc3c2CC=C3)nc1)c1ccc(Cl)c(Cl)c1 [Example 35, 3,4-dichloro-N1-{6-[(1H-inden-7-yl)oxy]-3-pyridinyl}benzamide] | 2.43 µM
14 | CC1(c2ccc(Oc3ccc(NC(=O)c4ccc(Cl)c(Cl)c4)cn3)cc2)OCCO1 [Example 33, 3,4-dichloro-N1-{6-[4-(2-methyl-1,3-dioxolane-2-yl)phenoxy]-3-pyridinyl}benzamide] | 3.88 µM
15 | CC(=O)c1ccc(Oc2ccc(NC(=O)c3ccc(Cl)c(Cl)c3)cn2)cc1C [Example 21, N1-[6-(4-acetyl-3-methylphenoxy)-3-pyridinyl]-3,4-dichlorobenzamide] | 2.92 µM
16 | O=C(Nc1ccc(C(F)(F)F)cc1)c1ccc(Oc2cccc3c2CCC3=O)nc1 [Example 39, 6-[(1-oxo-2,3-dihydro-1H-inden-4-yl)oxy]-N3-[4-(trifluoromethyl)phenyl]nicotinamide] | 0.55 µM
